pIC50: −log10 of the molar value. Where two headings read alike, the source gives them in different places.
Legend:
[1] = biological target: T1, human CTPS1 (Homo sapiens, UniProt P17812); assay: Human CTPS1 enzyme inhibition (ADP-Glo Max assay); format: biochemical; details: ADP-Glo Max assay, read-out: CTPS1 (Human CTPS1 Enzyme Inhibition data grouped by potency range, IC50)
T1 construct: purchased Proteros biostructures GmbH
T1 sequence (P17812 1-591): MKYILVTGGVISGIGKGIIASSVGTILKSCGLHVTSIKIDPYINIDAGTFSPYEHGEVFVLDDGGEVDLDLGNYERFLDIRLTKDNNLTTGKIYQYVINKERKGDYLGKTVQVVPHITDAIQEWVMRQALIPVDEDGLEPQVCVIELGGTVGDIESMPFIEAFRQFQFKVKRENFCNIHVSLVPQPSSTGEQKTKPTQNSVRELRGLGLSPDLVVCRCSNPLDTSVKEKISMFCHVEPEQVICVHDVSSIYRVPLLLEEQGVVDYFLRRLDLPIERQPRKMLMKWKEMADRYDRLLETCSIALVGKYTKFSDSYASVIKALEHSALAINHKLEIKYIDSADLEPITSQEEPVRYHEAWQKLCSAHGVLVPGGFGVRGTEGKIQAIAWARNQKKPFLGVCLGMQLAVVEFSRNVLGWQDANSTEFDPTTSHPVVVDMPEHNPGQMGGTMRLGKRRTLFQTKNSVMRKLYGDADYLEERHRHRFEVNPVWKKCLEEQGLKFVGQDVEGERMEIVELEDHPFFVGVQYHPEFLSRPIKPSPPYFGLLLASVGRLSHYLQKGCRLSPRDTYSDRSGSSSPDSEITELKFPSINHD
In short: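 Full-length FLAG-His-tagged human CTPS1 and compound were preincubated 10 min at 25 °C in 50 mM Tris pH 8.0, 10 mM MgCl2, 0.01% Tween-20, 2 mM L-cysteine. Substrate mix: ATP 0.31 mM, GTP 0.034 mM, UTP 0.48 mM, glutamine 0.186 mM; linear-phase reaction at 25 °C. ADP-Glo Max luminescence; IC50 from inhibition curve.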

[2] = test system: human CTPS1 versus CTPS2; assay: Human CTPS1 versus CTPS2 selectivity assessment by RapidFire/MS analysis; format: biochemical
Description: Biological Example 2—RapidFire/MS-Based Enzyme Selectivity Assays.
Human CTPS1 Versus CTPS2 Selectivity Assessment by RapidFire/MS Analysis.
The enzyme inhibitory activities against each target isoform of interest may be determined for the compounds of the invention using an optimised RapidFire high-throughput mass spectrometry (RF/MS) assay format. RF/MS assays for both human CTPS1 and CTPS2 may be performed in assay buffer consisting of 50 mM HEPES (Merck), 20 mM MgCl2, 5 mM KCl, 1 mM DTT, 0.01% Tween-20, pH to 8.0 accordingly. Human full-length active C-terminal FLAG-His-tag CTPS1 (UniProtKB-P17812, CTPS[1-591]-[…]) may be obtained from Proteros biostructures GmbH. Human full length active C-terminal FLAG-His-Avi tagged CTPS2 (UniProtKB-Q9NRF8, CTPS2 [1-586]-[…]) may be obtained from Harker Bio.
Human CTPS (1 or 2) protein may be prepared in 1× assay buffer to the final working protein concentration required for the reaction. A 2 uL volume per well of 2×CTPS (1 or 2) protein may be mixed with 40 nL of compound using acoustic (ECHO) delivery and incubated for 10 minutes at 25° C. Each isoform enzymatic reaction may be subsequently initiated by addition of 2 uL per well of a 2× substrate mix in assay buffer. For hCTPS1: ATP (0.3 mM), UTP (0.2 mM), GTP (0.07 mM) and L-glutamine (0.1 mM). For hCTPS2: ATP (0.1 mM), UTP (0.04 mM), GTP (0.03 mM) and L-glutamine (0.1 mM). Each mixture may be incubated for an appropriate amount of time per isoform within the determined linear phase of the reaction at 25° C. A 60 uL volume of stop solution (1% formic acid with 0.5 uM ^13C9-^15N3-CTP in H2O) may be added and the plate immediately heat-sealed and centrifuged for 10 minutes at 4,000 rpm. Following centrifugation, plates may be loaded onto the Agilent RapidFire microfluidic solid phase extraction system coupled to an AP14000 triple quadrupole mass spectrometer (RF/MS) for analysis.
In all cases, the enzyme converts UTP to CTP. Highly specific and sensitive multiple reaction monitoring (MRM) MS methods may be optimised for the detection of the enzymatic reaction product, CTP, and the stable isotope labelled product standard ^13C9-^15N3-CTP. Readout for data analysis may be calculated as the ratio between the peak area of the product CTP and the internal standard ^13C9-^15N3-CTP. For data reporting, the following equation may be used: […]
For each screening plate, the means of the negative (DMSO) and positive control values were used for the calculation of the respective assay window (S/B) and Z′ values. The median of the respective control values was used for calculation of percent inhibition according to the following equation: […]
Percentage inhibition was then plotted against compound concentration, and the 50% inhibitory concentration (IC50) was determined from the resultant concentration-response curve.
Fold selectivity between CTPS1 and CTPS2 was subsequently calculated according to the following equation: […]

Compound	Selectivity (fold selectivity between CTPS1 and CTPS2) ([2]; Table 26)	further results
CCOc1cncc(-c2ccc(NC(=O)C3(c4ccnc(NS(=O)(=O)C5CC5)n4)CCC(O)CC3)nc2)n1 (single isomer, unassigned) [Example P227, 1-(2-(cyclopropanesulfonamido)pyrimidin-4-yl)-N-(5-(6-ethoxypyrazin-2-yl)pyridin-2-yl)-4-hydroxycyclohexanecarboxamide]	–	pIC50 ([1]; Table 24): ≥ 7.00; Selectivity (fold selectivity between CTPS1 and CTPS2) ([2]; Table 27): +++ (>60 fold (+++))
CCOc1cncc(-c2ccc(NC(=O)C3(c4ccnc(NS(=O)(=O)C5CC5)n4)CCC(O)CC3)nc2)n1 (single isomer, unassigned) [Example P228, 1-(2-(cyclopropanesulfonamido)pyrimidin-4-yl)-N-(5-(6-ethoxypyrazin-2-yl)pyridin-2-yl)-4-hydroxycyclohexanecarboxamide]	–	pIC50 ([1]; Table 24): 5.00 to 6.00; Selectivity (fold selectivity between CTPS1 and CTPS2) ([2]; Table 27): + (2-30 fold (+))
CCOc1cncc(-c2ccc(NC(=O)C3(c4ccnc(NS(=O)(=O)C5CC5)n4)CCC(N(C)C)CC3)nc2)n1 (single isomer, unassigned) [Example P229, 1-(2-(cyclopropanesulfonamido)pyrimidin-4-yl)-4-(dimethylamino)-N-(5-(6-ethoxypyrazin-2-yl)pyridin-2-yl)cyclohexane-1-carboxamide]	–	pIC50 ([1]; Table 24): ≥ 7.00; Selectivity (fold selectivity between CTPS1 and CTPS2) ([2]; Table 27): +++ (>60 fold (+++))
CCOc1cncc(-c2ccc(NC(=O)C3(c4ccnc(NS(=O)(=O)C5CC5)n4)CCC(N(C)C)CC3)nc2)n1 (single isomer, unassigned) [Example P230, 1-(2-(cyclopropanesulfonamido)pyrimidin-4-yl)-4-(dimethylamino)-N-(5-(6-ethoxypyrazin-2-yl)pyridin-2-yl)cyclohexane-1-carboxamide]	–	pIC50 ([1]; Table 24): ≥ 7.00; Selectivity (fold selectivity between CTPS1 and CTPS2) ([2]; Table 27): +++ (>60 fold (+++))
CCC(C(=O)Nc1ccc(-c2cncc(Cl)c2)cc1)c1ccnc(NS(=O)(=O)C2CC2)n1 (centres unmarked) [Example P1, N-(4-(5-Chloropyridin-3-yl)phenyl)-2-(2-(cyclopropanesulfonamido)pyrimidin-4-yl)butanamide]	+ (2-30 fold (+))	–
CCOc1cncc(-c2ccc(NC(=O)C3(c4ccnc(NS(=O)(=O)C5CC5)n4)CCCC3)cc2)n1 [Example P2, 1-(2-(Cyclopropanesulfonamido)pyrimidin-4-yl)-N-(4-(6-ethoxypyrazin-2-yl)phenyl)cyclopentanecarboxamide]	+++ (>60 fold (+++))	pIC50 ([1]; Table 23): ≥ 7.00
CC(C)Oc1cncc(-c2ccc(NC(=O)C(C)(C)c3ccnc(NS(=O)(=O)C4CC4)n3)nc2)n1 [Example P9]	+++ (>60 fold (+++))	–
CC(C)Oc1cncc(-c2ccc(NC(=O)Cc3ccnc(NS(=O)(=O)C4CC4)n3)c(F)c2)n1 [Example P12]	++ (>30-60 fold (++))	pIC50 ([1]; Table 23): ≥ 7.00
O=C(Cc1ccnc(NS(=O)(=O)C2CC2)n1)Nc1ccc(-c2cccnc2)cc1 [Example P16]	++ (>30-60 fold (++))	pIC50 ([1]; Table 23): 6.00 to 7.00
CCC(C(=O)Nc1ccc(-c2cncc(C(F)(F)F)n2)cn1)c1ccnc(NS(=O)(=O)C2CC2)n1 (centres unmarked) [Example P87]	++ (>30-60 fold (++))	–
CCOc1cncc(-c2ccc(NC(=O)C(CC)c3ccnc(NS(=O)(=O)C4CC4)n3)nc2)n1 (centres unmarked) [Example P88]	+++ (>60 fold (+++))	–
CCC(C(=O)Nc1ccc(-c2cncc(OC(C)C)n2)cn1)c1ccnc(NS(=O)(=O)C2CC2)n1 (centres unmarked) [Example P89]	+++ (>60 fold (+++))	–
CCC(C(=O)Nc1ccc(-c2cncc(OC)n2)cc1F)c1ccnc(NS(=O)(=O)C2CC2)n1 (centres unmarked) [Example P95]	+ (2-30 fold (+))	–
CCOc1cncc(-c2ccc(NC(=O)C(CC)c3ccnc(NS(=O)(=O)C4CC4)n3)c(F)c2)n1 (centres unmarked) [Example P96]	+ (2-30 fold (+))	–
CCC(C(=O)Nc1ccc(-c2cncc(OCC(F)(F)F)n2)cc1F)c1ccnc(NS(=O)(=O)C2CC2)n1 (centres unmarked) [Example P98]	+++ (>60 fold (+++))	–
CCC(C(=O)Nc1ccc(-c2cncc(C(F)(F)F)n2)cc1)c1ccnc(NS(=O)(=O)C2CC2)n1 (centres unmarked) [Example P103]	+ (2-30 fold (+))	–
CCOc1cncc(-c2ccc(NC(=O)C(CC)c3ccnc(NS(=O)(=O)C4CC4)n3)cc2)n1 (centres unmarked) [Example P105, 2-(2-(Cyclopropanesulfonamido)pyrimidin-4-yl)-N-(4-(6-ethoxypyrazin-2-yl)phenyl)butanamide]	++ (>30-60 fold (++))	–
CCC(C(=O)Nc1ccc(-c2cncc(OCC(F)(F)F)n2)cc1)c1ccnc(NS(=O)(=O)C2CC2)n1 (centres unmarked) [Example P108]	+++ (>60 fold (+++))	–
CCOc1cncc(-c2ccc(NC(=O)C(CCOC)c3ccnc(NS(=O)(=O)C4CC4)n3)cc2)n1 (centres unmarked) [Example P110]	++ (>30-60 fold (++))	–
CCOc1cncc(-c2ccc(NC(=O)C(CC)c3cccc(NS(=O)(=O)C4CC4)n3)nc2)n1 (centres unmarked) [Example P188]	++ (>30-60 fold (++))	–
CCOc1cncc(-c2ccc(NC(=O)C(CC)c3cccc(NS(=O)(=O)C4CC4)n3)cc2)n1 (centres unmarked) [Example P191]	++ (>30-60 fold (++))	–
CCOc1cncc(-c2ccc(NC(=O)C(C)(CCOC)c3cncc(NS(=O)(=O)C4CC4)n3)nc2)n1 (centres unmarked) [Example P198]	+++ (>60 fold (+++))	–
CCOc1cncc(-c2ccc(NC(=O)C(F)(CC)c3cncc(NS(=O)(=O)C4CC4)n3)nc2)n1 (centres unmarked) [Example P200]	++ (>30-60 fold (++))	–
CCOc1cncc(-c2ccc(NC(=O)C(CC)c3cncc(NS(=O)(=O)C4CC4)n3)nc2)n1 (centres unmarked) [Example P201]	+++ (>60 fold (+++))	–
CCOc1cncc(-c2ccc(NC(=O)C(CC)c3cncc(NS(=O)(=O)C4CC4)n3)cc2)n1 (centres unmarked) [Example P202]	+++ (>60 fold (+++))	–
CCOc1cncc(-c2ccc(NC(=O)C(C)(OC)c3cncc(NS(=O)(=O)C4CC4)n3)nc2)n1 (centres unmarked) [Example P205a]	+++ (>60 fold (+++))	–
CCOc1cncc(-c2ccc(NC(=O)C(C)(OC)c3cncc(NS(=O)(=O)C4CC4)n3)nc2)n1 (centres unmarked) [Example P205b]	++ (>30-60 fold (++))	–
CCOc1cncc(-c2ccc(C(=O)NC(CC)c3ccnc(NS(=O)(=O)C4CC4)n3)c(F)c2)n1 (centres unmarked) [Example P216]	+++ (>60 fold (+++))	–

Source: US20230002352A1, “SULFONAMIDE DERIVATIVES AS CTPS1 INHIBITORS” (Step Pharma S.A.S., priority 2019, published 2023)
